In general, LD50 refers to the dose at which mortality reaches 50%.

We go through 8 compounds from US5378846A, “1,2,3,4-tetrahydropyrrolo-[1,2-a]-pyrazine derivatives” (Russian-American Institute For New Drug Development, priority 1993, dated 1995).

Where “and” joins values, the source holds several entries; their conditions need not be identical. Identical values can stand only once.

In data set [1] the test system is rat behavior in Vogel conflict test. Kind of data set: Vogel conflict test (anxiolytic activity, punished responses in water-deprived rats). The format is in vivo, outbred male albino rats. The note with it: rat. The text has this:
Compounds according to the present invention were checked for their anxiolytic activity. Behaviour suppressed by punishment is a very reliable indicator of the anxiolytic activity of drugs. A variant of the conflict situation test was used to reveal anxiety in water-deprived rats whose licking was suppressed by shock (see Vogel et al., Phychopharmacologia, 21, 1-7 (1971); J. E. Barrett in Animal Models in Psychopharmacology, Advances in Pharmacological Sciences, 1991; and Birkhauser Verlag, Basel, p. 37.52, Molodavkin et al., Exper. Clin. Pharmacol., 56, (1993), which are incorporated herein by reference).
The experiments were carried out using outbred male albino rats (180-220 g). This experiment involved previous training of water-deprived rats to drink water from a trough. Next day electrical stimulation was given delivering 0.5 mA electric shocks through the trough and metal grid floor of the experimental chamber. A conflict situation was created by clashing motivations (survival and self defense). The degree of anxiolytic activity was estimated by the measurement of the amount of punished licks for 10 min. Each compound was administered intraperitoneally 45 min. before the conflict test.

For data set [2], the system named is locomotor activity in mice. In words: Locomotor activity in mice (actometer). The format is in vivo, outbred male mice. The note with it: i.p. The method, then:
(§1) Compounds according to the present invention were checked for their influence on gross behaviour. The experiments described herein (Examples 11, 12, 13, 14, and 15) were carried out using outbred male mice weighing approximately 18-24 g. Each substance was administered intraperitoneally 45 min. before the experiment. Locomotor activity was estimated individually for each animal for 3 min. using an actometer `Era-1` (Russia).

Data set [3] relates to duration of immobility in mice. Kind of data set: Behavioural despair test (forced swimming). Type of data set: in vivo, outbred male mice. The note with it: for Influence on duration of immobility, in words: forced swimming; for The duration of immobility: i.p. The method, then:
as §1
The influence of compounds on behavioral despair was studied according to the model described by Porsolt et al., Arch. int. pharmacodyn.et ther., 228, 327-[…] (1977), which is incorporated herein by reference. Mice, when forced to swim in a cylinder of water without the possibility of escape, rapidly adopt a characteristic immobile posture. […] The only movements they make are those necessary to keep their heads above water.

A short description of data set [4]: Acute toxicity in mice. The note with it: mouse, in vivo, ip, mice, i.p., lethality 24 hours later, Table 6 (range in brackets beside); read-out: LD50. The method, then:
as §1
The compounds of the present invention were checked for acute toxicity in outbred male mice (18-22 g.). They were administered intraperitoneally and the lethality was estimated 24 hours later (Table 6). In the dose range of 500-1000 mg/kg i.p. Compound 1 caused death in 50% of the animals. Compound 1 is almost 5 times less toxic than other compounds.

Data set [5] has as its system aggressive behavior in mice. Kind of data set: Antiaggressive activity (threshold of aggressive behavior, electrified floor). Type of data set: in vivo, outbred male mice. As to the method: as §1
The effect of Compound 1 on the threshold of the aggressive behavior was determined in the experiment on outbred mice (R. Tedesci et al., J. Pharmacol. Exp. Ther., 125, 28-34, (1959), which is incorporated herein by reference). The paired mice were placed on the electrified floor. The strength of the current, which provoked the fighting, was recorded.

Data set [6] has as its system memory formation in rats. Kind of data set: Passive avoidance test, step-through (memory formation, retention). The format is in vivo, outbred male albino rats. Particulars: rat, 5.0 mg/kg i.p., retention 24 hours later, 3 min. As to the method: The influence of Compound 1 on memory formation was studied in a passive avoidance test, step-through paradigm (equipment of Laffaette Co., USA). The experiments were carried out on outbred male albino rats ([…]). Compound 1 and other drugs were administered intraperitoneally 45 min. before the passive avoidance training. The retention was tested 24 hours later learning (painful electroshock in the dark compartment) by the measurement of the time spent in the dark compartment for 3 min.

The subject of data set [7] is motor behavior in mice. In words: Horizontal wire test (coordination of movements and myorelaxation). The note with it: mice. As to the method:
(§2) The influence of Compound 1 on the motor behavior was studied according to a "rotating rod" test and a "horizontal wire" test in outbred male mice (18-22 g). A rotating rod (2 cm diameter and 5 rpm speed) was used. Acquisition was defined as the ability to remain on the rotating rod for 2 min. Each animal had two trials. According to the "horizontal wire" test a mouse was hung on the wire (0.3 cm. diameter, wire was fixed horizontally 40 cm above the floor) by the forepaws. The ability to pull the hind legs up to the wire for 2 min. was a criterion of test performance.

A short description of data set [8]: Rotating rod test (coordination of movements and myorelaxation). Particulars: mouse, in vivo. As to the method: as §2
The subject of data set [9] is motor behavior in mice. The data set is described as above. The note with it: mice. The method, then: as §2
A short description of data set [10]: Horizontal wire test (coordination of movements and myorelaxation). Particulars: mouse, in vivo. As to the method:
as §2

Where [11] appears, read: 2.0 mg/kg i.p., 45 min before test, Table 1.

As to `CC(=O)N1CCn2c(CN(C)C)ccc2C1` [Compound 2, hydrooxalate of 2-acetyl-6-(dimethylaminomethyl)-1,2,3,4-tetrahydropyrrolo-[1,2-a]-pyrazine], the “The number of punished responses” value in data set [1] (setting [11]) came out at 63.00 ± 35.38. Also, the “Influence on locomotor activity, in words” value in data set [2] is “decrease locomotor activity”. The “The number of movements for 3 min., horizontal activity” value (from here on “The number … horizontal activity”) in [2] (10.0 mg/kg) is listed as 524.4 ± 36.9; in data set [2] (20.0 mg/kg) it was 489.1 ± 9.7. Moreover, the “The number of movements for 3 min., vertical activity” value (shortened to “The number … vertical activity”) in data set [2] (10.0 mg/kg) is 10.0 ± 2.1; in data set [2] (20.0 mg/kg), 22.4 ± 3.0. The “Influence on duration of immobility, in words” value (from here on “Influence on duration”) in [3] is given as “increased the duration of immobility”. In addition, the “The duration of immobility” value was 203.4 ± 14.1 s in data set [3] (10.0 mg/kg) and 234.9 ± 12.6 s in data set [3] (20.0 mg/kg). Also, in data set [4], the 50% lethal dose (LD50) at 24 h was 340 mg/kg.

Turning to `CC(=O)N1CCn2c(CN3CCCCC3)ccc2C1` [Compound 3, 2-Acetyl-6-(Piperidinomethyl)-1,2,3,4-Tetrahydropyrrolo-[1,2-]-Pyrazine], the “The number of punished responses” value in data set [1] (setting [11]) is listed as 22.00 ± 4.86. The “Influence on locomotor activity, in words” value in [2] was “decrease locomotor activity”. Besides, the “The number … horizontal activity” value in [2] (10.0 mg/kg) is listed as 532.5 ± 42.1; in [2] (20.0 mg/kg), 442.7 ± 30.3. Also, the “The number … vertical activity” value in [2] (10.0 mg/kg) is 8.1 ± 1.9; in [2] (20.0 mg/kg), 9.2 ± 4.4. The “Influence on duration” value in data set [3] was “increased the duration of immobility”. For the same compound, the “The duration of immobility” value was 209.3 ± 6.5 s in data set [3] (10.0 mg/kg) and 254.6 ± 10.9 s in data set [3] (20.0 mg/kg). Further, in data set [4], the 50% lethal dose (LD50) at 24 h was 414 mg/kg.

In the case of `CC(=O)N1CCn2c(CN3CCOCC3)ccc2C1` [Compound 4, 2-Acetyl-6-(Morpholinomethyl)-1,2,3,4-Tetrahydropyrrolo-[1,2-a]-Pyrazine], the “The number of punished responses” value in data set [1] (setting [11]) is 9.25 ± 1.75. Moreover, the “The number … horizontal activity” value in data set [2] (10.0 mg/kg) was determined as 479.6 ± 22.8; in data set [2] (20.0 mg/kg), 564.5 ± 22.5. In addition, the “The number … vertical activity” value in data set [2] (10.0 mg/kg) came out at 17.6 ± 6.9; in data set [2] (20.0 mg/kg) it was 24.7 ± 5.6. Further, in [3], the “Influence on duration” value was “did not show any activity”. The “The duration of immobility” value in data set [3] (10.0 mg/kg) came out at 197.3 ± 5.9 s; in data set [3] (20.0 mg/kg), 202.7 ± 6.7 s. Further, the LD50 at 24 h in [4] was found to be 105 mg/kg.

For the compound `CN(C)Cc1ccc2n1CCN(C(=O)c1ccccc1)C2` [Compound 5, 2-Benzoyl-6-(Dimethylaminomethyl)-1,2,3,4-Tetrahydropyrrolo-[1,2-]-Pyrazine], the “The number of punished responses” value in data set [1] (setting [11]) is given as 85.25 ± 32.04. Besides, the “The number … horizontal activity” value in [2] (10.0 mg/kg) worked out at 676.1 ± 34.5; in data set [2] (20.0 mg/kg), 659.7 ± 32.7. Also, the entries for the “The number … vertical activity” value in data set [2] (10.0 mg/kg) and in [2] (20.0 mg/kg) were 36.1 ± 5.8 and 36.6 ± 8.6, respectively. For the same compound, the “Influence on duration” value in data set [3] was “reduced the duration of immobility”. Moreover, the “The duration of immobility” value in data set [3] (10.0 mg/kg) was 189.4 ± 10.3 s and 218.3 ± 12.1 s; in data set [3] (20.0 mg/kg), 216.4 ± 14.2 s. Also, the LD50 at 24 h in data set [4] stood at 77 mg/kg.

Regarding `O=C(O)C(=O)O.O=C(c1ccccc1)N1CCn2c(CN3CCCCC3)ccc2C1` [Compound 6, 2-Benzoyl-6-(Piperidinomethyl)-1,2,3,4-Tetrahydropyrrolo-[1,2-a]-Pyrazine Hydrooxalate], in data set [1] (setting [11]), the “The number of punished responses” value is 30.75 ± 13.17. Further, the “The number … horizontal activity” value in data set [2] (10.0 mg/kg) turned out to be 693.0 ± 25.3; in data set [2] (20.0 mg/kg), 644.0 ± 30.4. For the same compound, the “The number … vertical activity” value in data set [2] (10.0 mg/kg) is 16.5 ± 6.2; in data set [2] (20.0 mg/kg) it was 19.9 ± 3.4. Besides, the “Influence on duration” value in [3] was “reduced the duration of immobility”. In addition, the “The duration of immobility” value in data set [3] (1.0 mg/kg) was 184.3 ± 11.7 s; in data set [3] (10.0 mg/kg), 201.7 ± 13.1 s. Further, in data set [4], the LD50 at 24 h was 389 mg/kg.

Take `O=C(O)C(=O)O.O=C(c1ccccc1)N1CCn2c(CN3CCOCC3)ccc2C1` [Compound 7, 2-Benzoyl-6-(Morpholinomethyl)-1,2,3,4-Tetrahydropyrrolo-[1,2-a]-Pyrazine Hydrooxalate]: in [1] (setting [11]), the “The number of punished responses” value was 25.00 ± 5.99. In addition, the “Influence on locomotor activity, in words” value in data set [2] is recorded as “decrease locomotor activity”. Also, the figures for the “The number … horizontal activity” value in data set [2] (10.0 mg/kg) and in data set [2] (20.0 mg/kg) were 475.1 ± 11.2 and 474.0 ± 14.7, respectively. Further, the “The number … vertical activity” value was found to be 13.7 ± 2.5 in data set [2] (10.0 mg/kg) and 12.4 ± 3.8 in [2] (20.0 mg/kg). Further, the “Influence on duration” value in [3] was “did not show any activity”. In addition, the figures for the “The duration of immobility” value in data set [3] (10.0 mg/kg) and in [3] (20.0 mg/kg) were 169.3 ± 11.8 s and 147.8 ± 7.1 s, respectively. In addition, the LD50 at 24 h in data set [4] was found to be 115 mg/kg.

Turning to `CN1C(=O)CN=C(c2ccccc2)c2cc(Cl)ccc21` [Diazepam, reference compound], the “The number of punished responses” value in [1] (i.p., dose 1.0 mg/kg, Table 2) is 22.25 ± 10.89; in data set [1] (i.p., dose 2.0 mg/kg, Table 2), 47.25 ± 22.49. Besides, the Aggression threshold in data set [5] (1.0 mg/kg i.p.) stood at 45.4 ± 9.5 V; in [5] (5.0 mg/kg i.p.), 92.4 ± 15.6 V. Besides, the “The time spent in dark compartment” value in data set [6] stood at 127.7 ± 21.1 s. Also, in data set [6], the “The time spent in light compartment” value turned out to be 52.3 ± 11.3 s. Also, the results for the “Disturbances according to horizontal wire test, effect in %” value in [7] (dose 1.0), in data set [7] (dose 2.0) and in data set [7] (dose 5.0) were 20%, 40% and 80%, respectively.

Regarding `CN1CCN=C(c2ccccc2)c2cc(Cl)ccc21` [Medazepam, reference compound], the Aggression threshold was 32.2 ± 5.25 V in [5] (5.0 mg/kg i.p.) and 43.1 ± 4.2 V in data set [5] (10.0 mg/kg i.p.). Besides, the “The time spent in dark compartment” value in data set [6] worked out at 142.6 ± 19.58 s. For the same compound, the “The time spent in light compartment” value in data set [6] was 37.4 ± 19.5 s. Also, the values for the TD50 in data set [8] and in data set [10] were 5.2 mg/kg and 7.5 mg/kg, respectively. For the same compound, the “Disturbances according to rotating rod test, effect in %” value in data set [9] (dose 2.5) is recorded as 40%; in data set [9] (dose 5.0), 50%; in [9] (dose 10.0), 96%. Further, the “Disturbances according to horizontal wire test, effect in %” value stood at 33% in data set [7] (dose 2.5), 50% in [7] (dose 5.0) and 75% in data set [7] (dose 10.0).
